Results as given in patent US20240299457A1, “METHODS FOR TREATING DISEASE ASSOCIATED WITH SENESCENCE” (Steadman Philippon Research Institute, priority 2019, published 2024).
Entries after “also recorded” stand apart in the source; their conditions may differ.

Legend:
[1] = Losartan administration; cited from earlier work
[2] = tested on: senescent CD3+ T-cells; experiment: Senescent peripheral blood CD3+ T-cells before and after oral Fisetin, C12FDG flow cytometry (person); assay type: in vivo, human; details: CD3+ cells after Fisetin treatment, 100 mg per day for 45 days
Procedure: Whole blood was collected from a subject into 50 ml Syringe containing ACD-A and set on a rocker. SepMate tubes (Stem Cell Technologies) were prepared with 15 ml Lymphoprep in a sterile environment. 10 ml whole blood were aliquoted into 50 ml conical tubes. 500 μl (50 μl/ml) RosetteSep (Stem Cell Technologies) was added to 10 mL sample of blood. For other blood samples, total PBMCs were collected as described below without T-cell enrichment for comparison. The mixture was incubated 10 min at room temperature (RT). An equal volume dilution medium (DM-sterile PBS and 2% FBS) was added to the sample and mixed gently. The diluted sample was slowly added to the SepMate tube containing Lymphoprep density gradient medium. The mixture was centrifuged at 1200×g for 10 minutes, brake on. The enriched cells were collected by pouring supernatant into a new tube. […]
Senescent cells were treated with Fisetin and then further characterized using flow cytometry (as described in Example 4, above). Peripheral Blood CD3+ T-cells from a person before & after Fisetin treatment (100 mg per day for 45 days) were evaluated for senescence and for senescent cell populations. Before treatment, the subject measured about 29% senescent cells, and after treatment, the subject measured about 4% senescent cells (data not shown).

[3] = tested on: C12FDG+ T-Cells; experiment: Bright and dim C12FDG+ T-cells in five patients treated with Fisetin; assay type: in vivo, human
Procedure: A certified phlebotomist used a 19-gauge butterfly needle to perform a standard venipuncture from the antecubital (AC) area, forearm or hand vein. Approximately 35 mL of blood was drawn into one 30 cc syringe (with ACD-A) and one 5 cc (without ACD-A) syringe. […] For total PBMCs and enriched T-Cells, SepMate™ tubes (Stem Cell Technologies) were used following manufactures protocol with Lymphoprep™ (Stem Cell Technologies) gradient centrifugation. Specifically, in separate tubes, CD3+ T-Cells were enriched using the RosetteSep™ commercial kit following manufactures instructions (Stem Cell Technologies #15021). A portion of cells (enriched T-cells and total PBMCs) were stained with 30 μM C12FDG in general culture media supplemented with 10% FBS and analyzed with flow cytometry (Guava EasyCyte, Luminex). To assess the percent, number, and concentration (cell/ml) of senescent CD3+ T-cells and PBMCs, settings were adjusted first using an unstained control (i.e., cells not treated with C12FDG). First, thresholds were set for FSC and SSC to catch cellular events. Next the green channel gain controls were set so that the background events fall between the 1st and second decade. […] Samples were ran in triplicate with water-only runs every 5 wells. Five patients with an age range from 56-77 years were treated with Fisetin at 100 mg/day for 30-45 days.

[4] = tested on: low passage (<p4) ADSCs; experiment: CellTiter 96 AQueous Cell Proliferation Assay (cell toxicity); assay type: cell-based, human
Procedure: Banked ADSCs isolated from person three, person four, person two, and person one were purchased and cultured with normal growth media (DMEM/F:12, 10% FBS, and 1% penicillin/streptomycin).
Fisetin was added to growth media and treated on cells for 24 hours. Following treatment, the media was changed to normal growth media for 24 hours before being used for cell toxicity, immunofluorescence, or flow cytometry.
The CellTiter 96® AQueous Cell Proliferation Assay was used to determine the toxicity of 50 μM, 25 μM, and 1 μM Fisetin on low passage (<p4) cells. Cells were seeded at 40,000 cells/well in a 12-well plate. After adhering overnight, the cells were treated with 50 μM, 25 μM, and 1 μM of Fisetin for 24 hours. After treatment, the media was changed back to normal growth media for another 24 hours. The cells were then treated with the CellTiter 96 AQueous Cell Proliferation Assay following the manufacturer's protocol. Values are relative to untreated, control cells.

[5] = tested on: mice OA models; details: cited from earlier work
[6] = tested on: Zmpste24−/− mice; experiment: Micro-CT analysis of bone in progeroid Z24−/− mice given senolytic drugs; assay type: in vivo, mouse
Procedure: (§1) Adult progeroid Z24−/− mice were administered senolytic drugs via oral gavage (150 μl volume) starting at 2.5 to 3.0 months of age. D/Q (5 mg/kg: 50 mg/kg in 10% PEG400/5.0% DMSO) was given as a single dose at 2.5 months or multi-dose at 2.5, 3.0, 3.5, 4.0, 4.5, and 5.0 months. Both single and multi-dose DQ mice were sacrificed at 5 months. FIS (100 mg/kg in 90% PEG400/10.0% ethanol) treated mice were given a total of 4 weekly doses of drug starting at 3.0 months of age, then sacrificed at 4.0 months of age. For 17-DMAG treatments (10 mg/kg, 1% DMSO-PBS), mice were treated 3 times per week starting at 2 months of age then sacrificed at 4 months of age.
For Fisetin treatments, mice were imaged using the explore Locus Utra Pre-Clinical CT Scanner (GE Healthcare, London, ON) through the pre-Clinical CT Core Facility with the following acquisition settings: 140 kVp, 22 mA with 16 s rotation/exposure. Non-cardiac gated CT images were acquired at all-time points. Simple back projections were obtained from the […] image reconstruction and exported as DICOM images. Image analysis was performed using the OsiriX software. Qualitative analysis of the bones was performed in 2D and 3D reconstructions using OsiriX. MicroView imaging software was also used for the quantitative analysis of the bone mineral density.
(§2) Z24−/−mice were treated with Fisetin weekly for 4 weeks (100 mg/kg) starting at 3 months of age then sacrificed at 4 months of age. 4 months was chosen as a sacrifice time (versus 5 months) given the more advanced pathology that occurred at 5 months, a time when therapies might have negligible effects like seen in D+Q treated animals.

[7] = tested on: senescent ADSCs (β-galactosidase, C12FDG); experiment: C12FDG staining of senescence-associated β-galactosidase with flow cytometry in culture-expanded ADSCs; assay type: cell-based, human
Procedure: Cells were treated with 100 nM of bafilomycin A1 for 1 hour at 37° C. and 5% CO2. Next, 33 μM C12FDG was added and incubated for 2 hours. Thus, cells were stained with the fluorescent senescence-associated marker C12FDG, collected, and tested for senescence using flow cytometry after 50 μM Fisetin treatment. 3 replicates were used per treatment. The InCyte software was used, and fluorescent gating was determined using unstained control cells.
(§3) To determine Fisetin's senolytic ability in vitro, based on the data from the preceding example, the 50 μM Fisetin concentration was used to treat YF and OF cells. Senescent cells were quantified by immunofluorescence using ? -H2AX and H3K9. Similarly, YM and OM cells were quantified using C12FDG for flow cytometry. C12FDG reacts with beta-galactosidase, a biomarker for senescence, to produce a fluorogenic substrate to be detected and quantified by flow cytometry.
Cells were seeded in triplicate for each group using previously described culture methods and seeding densities. After adhering overnight, the media was changed. […] After culturing in normal growth media for another 24 hours, the media was collected for SASP quantification or the cells were processed for C12FDG or SAHF staining, as described in the preceding example.

[8] = tested on: SASP factors IL-6, IL-8, MCP-1; experiment: SASP factor quantification in ADSC culture media (Milliplex); assay type: cell-based, human; details: after Fisetin treatment, media 24 hours
Procedure: For SASP detection, the media were collected after incubating with the cells for 24 hours, centrifuged at 2,000×g for ten minutes, transferred to new microcentrifuge tubes, and stored at −80° C. until testing. The Human Adipocyte Milliplex kit using the EMD Millipore Milliplex instrument was used to quantify the SASPs.
Cells were seeded in triplicate for each group using previously described culture methods and seeding densities. After adhering overnight, the media was changed. For the untreated group normal ADSC growth media was used (DMEM:F-12 with 10% FBS and 1% penicillin/streptomycin), and for the treated group 50 μM Fisetin was added. Cells were treated for 24-hours, after which the media was changed back to normal growth media for all groups. After culturing in normal growth media for another 24 hours, the media was collected for SASP quantification or the cells were processed for C12FDG or SAHF staining, as described in the preceding example.
Within the R1 region of FIGS. 4B-4D, cells positive for C12FDG are noted by their respective peaks. […] In all groups, a decrease was indicated. […] 3 replicates were used for each treatment. (FIG. 6).

[9] = tested on: senescence-associated heterochromatin foci (SAHF) in ADSCs; experiment: Immunofluorescence of senescence-associated heterochromatin foci (H3K9, γ-H2AX) in ADSCs; assay type: cell-based, human; details: 50 μM Fisetin
Procedure: Specifically, the cells were maintained in T-75 culture flasks using normal growth media (DMEM:F-12 with 10% FBS and 1% penicillin/streptomycin). At 70-90% confluency, the cells were passaged and reseeded in the flasks at a 1:4 dilution. At their respective testing passage number, cells were plated into chamber slides for SAHF staining at a density of 5,000 cells/cm^2. Cells were seeded in triplicate for each group and incubated to adhere overnight. The following day, cells were fixed with cold 4% paraformaldehyde and stained with the H2AX antibody using a 1:150 dilution and the H3K9 antibody using a 1:250 dilution. DAPI was also used to stain the nuclei. Five images per well and three wells per group were imaged using the Nikon Eclipse Ni-U microscope. Cells positive for the H2AX and H3K9 antibodies were quantified using the ImageJ software.
Each cell type was given 3 replicate wells, and each well was imaged 6 times, for a total of 18 images per group. Using an Image J program, the number of cells positive for each marker was quantified.
as §3, with “C12FDG reacts with beta-galactosidase, a biomarker for senescence, to produce a fluorogenic substrate to be detected and quantified by flow cytometry.” left out

[10] = tested on: Zmpste24−/− mice; experiment: Transcript levels of senescence marker and SASP factors in tissues of Z24−/− mice; assay type: in vivo, mouse; details: 100 mg/kg weekly
Procedure: as §1, §2

[11] = treated versus untreated Z24−/− mice

CCCCc1nc(Cl)c(CO)n1Cc1ccc(-c2ccccc2-c2nn[nH]n2)cc1 [Losartan]
microfracture for cartilage repair [1]: enhance

O=c1c(O)c(-c2ccc(O)c(O)c2)oc2cc(O)ccc12 [Fisetin, 2-(3,4-dihydroxyphenyl)-3,7-dihydroxychromen-4-one]
Senescent cell concentration [2]: 7397 +/− 3191 cells/mL | Total senescent cells [2]: 191 +/− 73 | reduction in the percent of C12FDG+ cells (dim, early stage) ([3]; 100 mg/day for 30-45 days): 1-2 fold | bright cells, mean ([3]; P19, treated/post-treated): 1.15% | dim cells, mean ([3]; P19, treated/post-treated): 26.70% | bright cells, mean ([3]; P50, treated/post-treated): 0.60% | dim cells, mean ([3]; P50, treated/post-treated): 27.55% | reduction in bright C12FDG+ T-cells ([3]; patients with high baseline bright cells, 100 mg/day for 30-45 days): 10-20 fold | toxicity to the health of low passage ADSCs ([4]; 50 μM): not toxic | percentage of viable cells among treatments ([4]; 50 μM, 25 μM, 1 μM, YF, OF, YM, OM, relative to untreated control cells): no significant difference | toxicity to ADSCs ([4]; 1-50 μM, 24 hours treatment): non-toxic | ADSC viability and proliferation ([4]; Fisetin exposure): not hindered | cartilage destruction [5]: decreased | subchondral bone plate thickness [5]: decreased | synovitis [5]: relieved | bone density loss ([6]; 100 mg/kg weekly for 4 weeks from 3 months of age, micro-CT): significantly attenuate | protective effects in bone ([6]; Z24−/− mice, oral gavage): effective | Hounsfield unit (HU) intensity [6, 11]: Significant higher scores | bone mineral density (BMD) [6, 11]: Significant higher scores | specific bone surface (BS/BV) [6, 11]: Significant higher scores | % cells positive for C12FDG (senescence) ([7]; 50 μM Fisetin, 24 hours, passages 6, 8, 10): significantly reduced; also recorded: reduced at every passage | count of the peak representing senescent cells (histogram) ([7]; cells treated with 50 μM Fisetin): about 20 | IL-6 concentration [8]: decrease | IL-8 concentration [8]: decrease | MCP-1 concentration [8]: decrease | number of cells positive for H3K9 ([9]; OF and YF cells, passages 4 and 18): significantly reduced in all groups | γ-H2AX positive cells ([9]; low passage OF, low passage YF, high passage YF cells): reduced | transcript levels of IL-6 [10]: reduced | transcript levels of TGF-β [10]: reduced | transcript levels of p16INK4a [10]: reduced
